Reference: paper PMC4237480, “Cytochrome P450 induction properties of food and herbal-derived compounds using a novel multiplex RT-qPCR in vitro assay, a drug–food interaction prediction tool” (Food Science & Nutrition, 2014)

Assays:
[1] = tested on: CYP1A2; experiment: western blot analysis, CYP1A2 protein expression in HepG2 cells; assay type: in vitro ADME, human; conditions: for effect on CYP1A2 protein expression: HepG2 cells, 48 h, western blot densitometry normalized to β-actin, vs DMSO control
Method: All compounds were diluted with concentrated DMSO.

[2] = tested on: CYP2D6; experiment: western blot analysis, CYP2D6 protein expression in HepG2 cells; assay type: in vitro ADME, human; conditions: for effect on CYP2D6 protein expression: HepG2 cells, 48 h, western blot densitometry normalized to β-actin, vs DMSO control
[3] = tested on: CYP1A2; experiment: multiplex RT-qPCR, CYP1A2 mRNA expression in HepG2 cells; conditions: for concentration with statistically significant CYP1A2 mRNA induction: P < 0.05 vs control; for concentration from which CYP1A2 mRNA induction was detected/observed: not necessarily statistically significant
[4] = tested on: CYP2D6; experiment: multiplex RT-qPCR, CYP2D6 mRNA expression in HepG2 cells; conditions: concomitant furafylline and omeprazole, control treated with omeprazole
[5] = tested on: CYP3A4; experiment: multiplex RT-qPCR, CYP3A4 mRNA expression in HepG2 cells
[6] = tested on: CYP3A4; experiment: western blot analysis, CYP3A4 protein expression in HepG2 cells; conditions: for effect on CYP3A4 protein expression: HepG2 cells, 48 h, western blot densitometry normalized to β-actin, vs DMSO control
[7] = tested on: CYP3A4; design: method as in Pekthong et al. ([2008]); conditions: human microsomes; ref Pekthong et al. ([2008]); cited from earlier work
[8] = tested on: CYP2C9; design: method as in Pekthong et al. ([2008]); conditions: human microsomes; ref Pekthong et al. ([2008]); cited from earlier work
[9] = tested on: PXR-responsive genes like CYP3A4; design: method as in Ruhl et al. [2004]; conditions: HepG2 cells; ref Ruhl et al. [2004]; cited from earlier work
[10] = tested on: cytochrome P450 (CYP) 3A4; design: method as in Sunaga et al. [2012]; conditions: ref Sunaga et al. [2012]; cited from earlier work
[11] = tested on: CYP3A4; design: method as in Graber-Maier et al. [2010]; conditions: intestinal cells; ref Graber-Maier et al. [2010]; cited from earlier work
[12] = tested on: CYP1A2; design: method as in Chow et al. [2010]; conditions: healthy subjects, ref Chow et al. [2010], cited from earlier work
[13] = tested on: CYP3A4; design: method as in Chow et al. [2010]; conditions: healthy subjects; ref Chow et al. [2010]; cited from earlier work
[14] = tested on: CYP2D6; design: method as in Chow et al. [2010]; conditions: healthy subjects; ref Chow et al. [2010]; cited from earlier work
[15] = tested on: CYP2C9; design: method as in Chow et al. [2010]; conditions: healthy subjects; ref Chow et al. [2010]; cited from earlier work
[16] = tested on: CYP1A2; design: method as in Pekthong et al. ([2008]); conditions: human microsomes; ref Pekthong et al. ([2008]); cited from earlier work
[17] = tested on: CYP1A2; design: method as in Pekthong et al. [2009]; conditions: human hepatocytes; ref Pekthong et al. [2009]; cited from earlier work
[18] = tested on: 2C9; design: method as in Pekthong et al. [2009]; conditions: human hepatocytes; ref Pekthong et al. [2009]; cited from earlier work
[19] = tested on: 3A4; design: method as in Pekthong et al. [2009]; conditions: human hepatocytes; ref Pekthong et al. [2009]; cited from earlier work
[20] = tested on: CYP1A2; design: method as in Wen et al. [2002]; conditions: 48 h exposure, cultured human hepatocytes; ref Wen et al. [2002]; cited from earlier work
[21] = HepG2, concomitant furafylline and omeprazole, control treated with omeprazole

Cc1nc2c([nH]1)c(=O)n(C)c(=O)n2Cc1ccco1 [furafylline]
CYP1A2 protein expression in omeprazole-induced cells [1, 21]: reduction was statistically insignificant | CYP2D6 protein expression, furafylline with omeprazole [2, 21]: no significant changes | CYP1A2 mRNA expression in omeprazole-induced cells ([3]; HepG2, furafylline 2 h before omeprazole, concomitant treatment, compared with omeprazole-treated cells (control)): significantly reduced | CYP2D6 mRNA expression, furafylline with omeprazole [4]: no significant changes | CYP3A4 mRNA expression, furafylline with omeprazole [5, 21]: no significant changes | CYP3A4 protein expression, furafylline with omeprazole [6, 21]: no significant changes

CC(=O)N1CCN(c2ccc(OCC3COC(Cn4ccnc4)(c4ccc(Cl)cc4Cl)O3)cc2)CC1 (centres unmarked) [ketoconazole, reference compound]
IC50 [7]: […] | effect on CYP3A4 protein expression [6]: differences were not proved to be significant

CC(C)=CCC/C(C)=C/C=C/C(C)=C/C=C/C(C)=C/C=C/C=C(C)/C=C/C=C(C)/C=C/C=C(\C)CCC=C(C)C [lycopene]
effect on CYP2D6 protein expression [2]: did not appear to have any effects | activation potential on PXR-responsive genes like CYP3A4 [9]: no activation potential | inhibition of CYP3A4-mediated drug metabolism [10]: does not inhibit | effect on CYP3A4 protein expression [6]: did not appear to have any effects

COc1cc(/C=C/C(=O)CC(=O)/C=C/c2ccc(O)c(OC)c2)ccc1O [curcumin]
effect on CYP2D6 protein expression [2]: does not affect significantly | mRNA expression of CYP3A4 [11]: did not affect | effect on CYP3A4 protein expression [6]: significant induction

Oc1ccc(/C=C/c2cc(O)cc(O)c2)cc1 [resveratrol]
effect on CYP1A2 protein expression [1]: insignificant | CYP2D6 protein induction, average ([2]; 0.1 μmol/L, HepG2, 48 h): more than twofold changes | effect on CYP2D6 protein expression [2]: statistically significant CYP2D6 protein induction | decrease in the caffeine/paraxanthine metabolic ratio ([12]; 4 weeks of 1 g daily): 16% | phenotypic index of CYP1A2 [12]: induces | phenotypic index of CYP3A4 [13]: inhibit | phenotypic index of CYP2D6 [14]: inhibit | phenotypic index of CYP2C9 [15]: inhibit | concentration with statistically significant CYP1A2 mRNA induction ([3]; HepG2, 48 h): 50000 nM | concentration from which CYP1A2 mRNA induction was detected/observed ([3]; HepG2, 48 h): ≥ 100 nM

C=C1CC[C@@H]2[C@](C)(CO)[C@H](O)CC[C@@]2(C)[C@@H]1C/C=C1/C(=O)OC[C@H]1O [andrographolide]
effect on CYP2D6 protein expression [2]: up-regulated | mean up-regulation of the CYP2D6 protein ([2]; all concentrations tested, HepG2, 48 h): less than twofold changes | IC50 [16]: > 100000 nM | IC50 [8]: > 100000 nM | IC50 [7]: […] | mRNA expression of CYP1A2 [17]: decrease | mRNA expression of CYP2C9 [18]: decrease | mRNA expression of CYP3A4 [19]: decrease | effect on CYP3A4 protein expression [6]: did not affect

CC(C)=CCC/C(C)=C/COc1c2ccoc2cc2oc(=O)ccc12 [bergamottin]
effect on CYP1A2 protein expression [1]: only a slight induction | effect on CYP2D6 protein expression [2]: did not affect | levels of CYP1A2 protein and mRNA [20]: increased levels | CYP1A2 mRNA induction ([3]; 1 μmol/L, HepG2, 48 h, Ct 33 assumed for untreated control): ~11 fold increase | concentration from which CYP1A2 mRNA induction was detected/observed ([3]; HepG2, 48 h): ≥ 1000 nM | effect on CYP3A4 protein expression [6]: did not affect

COc1ccc2[nH]c([S+]([O-])Cc3ncc(C)c(OC)c3C)nc2c1 (centres unmarked) [omeprazole]
effect on CYP1A2 protein expression [1]: statistically insignificant | effect on CYP2D6 protein expression [2]: no effects | CYP1A2 mRNA up-regulation ([3]; 10 μmol/L, HepG2, 48 h, Ct 33 assumed for untreated control): 24 fold changes | concentration with statistically significant CYP1A2 mRNA induction ([3]; HepG2, 48 h): ≥ 10000 nM | concentration from which CYP1A2 mRNA induction was detected/observed ([3]; HepG2, 48 h): ≥ 1000 nM | CYP3A4 mRNA induction ([5]; 0.1 μmol/L, HepG2, 48 h): < 1.5 fold change | concentration with significant CYP3A4 mRNA induction ([5]; HepG2, 48 h, P < 0.05 vs control): 100 nM

O=c1cc(-c2ccccc2)oc2ccc3ccccc3c12 [β-naphthoflavone]
concentration with significantly higher CYP1A2 protein (mean relative intensity) ([1]; HepG2, 48 h, western blot): ≥ 5000 nM | effect on CYP1A2 protein expression [1]: significantly higher | effect on CYP2D6 protein expression [2]: remained either unchanged or there were slight changes that were statistically insignificant | IC50 [16]: 85 nM | CYP1A2 mRNA up-regulation ([3]; 5 μmol/L, HepG2, 48 h, estimated, Ct 33 assumed for untreated control): more than sixfold change | CYP1A2 mRNA up-regulation ([3]; 50 μmol/L, HepG2, 48 h, estimated, Ct 33 assumed for untreated control): 26 fold change | concentration from which CYP1A2 mRNA induction was detected/observed ([3]; HepG2, 48 h): ≥ 5000 nM | effect on CYP3A4 protein expression [6]: remained either unchanged or there were slight changes that were statistically insignificant
